Measured values from patent US11389407B2, “Cochleates and methods of using the same to enhance tissue penetration of pharmacologically active agent” (priority 2015, dated 2022).
≈ marks a conversion by molar mass, not a printed value.

Test system: Candida albicans
Assay: Minimum inhibitory concentration (MIC)
Type: cell-based

minimum inhibitory concentration (MIC): 0.25 µg/mL (≈ 0.271 µM)
SMILES: C[C@@H]1[C@H](O)[C@@H](C)/C=C/C=C/C=C/C=C/C=C/C=C/C=C/[C@H](O[C@@H]2O[C@H](C)[C@@H](O)[C@H](N)[C@@H]2O)C[C@@H]2O[C@](O)(C[C@@H](O)C[C@@H](O)[C@H](O)CC[C@@H](O)C[C@@H](O)CC(=O)O[C@H]1C)C[C@H](O)[C@H]2C(=O)O [AmB, amphotericin B]
